Reference: patent US9593108B2, “Compounds and methods for antiviral treatment” (PTC Therapeutics, Inc., priority 2009, dated 2017)

Tests used:
[1] = system: HCV replicon RNA (GenBank Accession No. AJ242654); assay: HCV Replicon Assay (replicon RNA reduction and/or Fluc reporter signal); format: cell-based, Hepatitis C virus; conditions: Hepatitis C virus, 72 h, replicon-containing cells cultured with test compound for up to 3 days
In short: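 Bicistronic replicon-containing cells cultured with compound for up to 3 days, with interferon as positive control. Inhibition quantified by replicon RNA reduction and/or Fluc reporter signal; IC50 values generally derived from replicon RNA reduction.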

SMILES	IC50 [1] [nM]	melting point [°C]
CC(C)(C)NS(=O)(=O)c1ccc(-c2c(C#N)c3cc(C(F)(F)F)cnc3n2-c2ccccc2)cc1 [Cpd 337, N-tert-butyl-4-[3-cyano-1-phenyl-5-(trifluoromethyl)-1H-pyrrolo[2,3-b]pyridin-2-yl]benzenesulfonamide]	500 to 2000	206 to 208
Cc1nc(-c2c(C#N)c3cc(C(F)(F)F)cnc3n2C2CCC2)ccc1S(=O)(=O)N[C@@H](C)C(F)(F)F [Cpd 338, 6-[3-cyano-1-cyclobutyl-5-(trifluoromethyl)-1H-pyrrolo[2,3-b]pyridin-2-yl]-2-methyl-N-[(2S)-1,1,1-trifluoropropan-2-yl]pyridine-3-sulfonamide]	< 500	162 to 165
C[C@H](NS(=O)(=O)c1ccc(-c2c(C#N)c3cc(Br)cnc3n2-c2ncccn2)nc1)C(F)(F)F [Cpd 339, 6-[5-bromo-3-cyano-1-(pyrimidin-2-yl)-1H-pyrrolo[2,3-b]pyridin-2-yl]-N-[(2S)-1,1,1-trifluoropropan-2-yl]pyridine-3-sulfonamide]	< 500	223 to 225
C[C@H](NS(=O)(=O)c1ccc(-c2c(C#N)c3cc(Br)cnc3n2-c2cnccn2)nc1)C(F)(F)F [Cpd 340, 6-[5-bromo-3-cyano-1-(pyrazin-2-yl)-1H-pyrrolo[2,3-b]pyridin-2-yl]-N-[(2S)-1,1,1-trifluoropropan-2-yl]pyridine-3-sulfonamide]	< 500	247 to 248
Cc1cnc2c(c1)c(C(N)=O)c(-c1ccc(S(=O)(=O)NC(C)(C)C(F)(F)F)cc1)n2C1CCC1 [Cpd 341, 1-cyclobutyl-5-methyl-2-{4-[(1,1,1-trifluoro-2-methylpropan-2-yl)sulfamoyl]phenyl}-1H-pyrrolo[2,3-b]pyridine-3-carboxamide]	< 500	235 to 237
C[C@H](NS(=O)(=O)c1ccc(-c2c(C#N)c3cc(C4CC4)cnc3n2-c2cnccn2)nc1)C(F)(F)F [Cpd 344, 6-[3-cyano-5-cyclopropyl-1-(pyrazin-2-yl)-1H-pyrrolo[2,3-b]pyridin-2-yl]-N-[(2S)-1,1,1-trifluoropropan-2-yl]pyridine-3-sulfonamide]	< 500	219 to 221
Cc1cnc2c(c1)c(C#N)c(-c1ccc(S(=O)(=O)N[C@@H](C)C(F)(F)F)cn1)n2-c1ncccn1 [Cpd 345, 6-[3-cyano-5-methyl-1-(pyrimidin-2-yl)-1H-pyrrolo[2,3-b]pyridin-2-yl]-N-[(2S)-1,1,1-trifluoropropan-2-yl]pyridine-3-sulfonamide]	< 500	221 to 223
Cc1cnc2c(c1)c(C#N)c(-c1ccc(S(=O)(=O)N[C@@H](C)C(F)(F)F)cn1)n2-c1ccccn1 [Cpd 346, 6-[3-cyano-5-methyl-1-(pyridin-2-yl)-1H-pyrrolo[2,3-b]pyridin-2-yl]-N-[(2S)-1,1,1-trifluoropropan-2-yl]pyridine-3-sulfonamide]	< 500	165 to 167
Cc1cnc2c(c1)c(C#N)c(-c1ccc(S(=O)(=O)N[C@@H](C)C(F)(F)F)cn1)n2-c1cccnc1 [Cpd 347, 6-[3-cyano-5-methyl-1-(pyridin-3-yl)-1H-pyrrolo[2,3-b]pyridin-2-yl]-N-[(2S)-1,1,1-trifluoropropan-2-yl]pyridine-3-sulfonamide]	< 500	205 to 207
Cc1cnc2c(c1)c(C#N)c(-c1ccc(S(=O)(=O)N[C@@H](C)C(F)(F)F)cn1)n2-c1ccccc1 [Cpd 348, 6-(3-cyano-5-methyl-1-phenyl-1H-pyrrolo[2,3-b]pyridin-2-yl)-N-[(2S)-1,1,1-trifluoropropan-2-yl]pyridine-3-sulfonamide]	< 500	220 to 222
Cc1cnc2c(c1)c(C#N)c(-c1ccc(S(=O)(=O)N[C@@H](C)C(F)(F)F)cn1)n2-c1cnccn1 [Cpd 349, 6-[3-cyano-5-methyl-1-(pyrazin-2-yl)-1H-pyrrolo[2,3-b]pyridin-2-yl]-N-[(2S)-1,1,1-trifluoropropan-2-yl]pyridine-3-sulfonamide]	< 500	220 to 222
CN(Cc1ccccc1)c1cnc2c(c1)c(C#N)c(-c1ccc(S(=O)(=O)NC(C)(C)C)cc1)n2C1CCC1 [Cpd 351, 4-{5-[benzyl(methyl)amino]-3-cyano-1-cyclobutyl-1H-pyrrolo[2,3-b]pyridin-2-yl}-N-tert-butylbenzenesulfonamide]	2000 to 5000	168 to 171
Cc1ccnc(-n2c(-c3ccc(S(=O)(=O)N[C@@H](C)C(F)(F)F)cn3)c(C#N)c3cc(C(F)(F)F)cnc32)n1 [Cpd 355, 6-[3-cyano-1-(4-methylpyrimidin-2-yl)-5-(trifluoromethyl)-1H-pyrrolo[2,3-b]pyridin-2-yl]-N-[(2S)-1,1,1-trifluoropropan-2-yl]pyridine-3-sulfonamide]	< 500	176 to 180
C[C@H](NS(=O)(=O)c1ccc(-c2c(C(N)=O)c3cc(F)cnc3n2C2CCC2)nc1)C(F)(F)F [Cpd 356, 1-cyclobutyl-5-fluoro-2-(5-{[(2S)-1,1,1-trifluoropropan-2-yl]sulfamoyl}pyridin-2-yl)-1H-pyrrolo[2,3-b]pyridine-3-carboxamide]	< 500	223 to 225
COc1cnc2c(c1)c(C(N)=O)c(-c1ccc(S(=O)(=O)N[C@@H](C)C(F)(F)F)cn1)n2C1CCCC1 [Cpd 357, 1-cyclopentyl-5-methoxy-2-(5-{[(2S)-1,1,1-trifluoropropan-2-yl]sulfamoyl}pyridin-2-yl)-1H-pyrrolo[2,3-b]pyridine-3-carboxamide]	< 500	263 to 264
CSc1cnc2c(c1)c(C(N)=O)c(-c1ccc(NS(=O)(=O)C(C)C)cc1)n2C1CCCC1 [Cpd 358, 1-cyclopentyl-5-(methylsulfanyl)-2-{4-[(propan-2-ylsulfonyl)amino]phenyl}-1H-pyrrolo[2,3-b]pyridine-3-carboxamide]	< 500	250 to 252
COc1cnc2c(c1)c(C(N)=O)c(-c1ccc(NS(=O)(=O)C(C)(C)C)cc1)n2C1CCCC1 [Cpd 359, 2-{4-[(tert-butylsulfonyl)amino]phenyl}-1-cyclopentyl-5-methoxy-1H-pyrrolo[2,3-b]pyridine-3-carboxamide]	< 500	269 to 272
C[C@H](NS(=O)(=O)c1ccc(-c2c(C#N)c3cc(C(F)(F)F)cnc3n2C2CC2)nc1)C(F)(F)F [Cpd 360, 6-[3-cyano-1-cyclopropyl-5-(trifluoromethyl)-1H-pyrrolo[2,3-b]pyridin-2-yl]-N-[(2S)-1,1,1-trifluoropropan-2-yl]pyridine-3-sulfonamide]	< 500	194 to 196
C[C@H](NS(=O)(=O)c1ccc(-c2c(C#N)c3cc([S+](C)[O-])cnc3n2C2CCC2)nc1)C(F)(F)F (stereo partly drawn) [Cpd 363, [3-cyano-1-cyclobutyl-2-(5-{[(2S)-1,1,1-trifluoropropan-2-yl]sulfamoyl}pyridin-2-yl)-1H-pyrrolo[2,3-b]pyridin-5-yl](methyl)sulfoniumolate]	< 500	257 to 258
CSc1cnc2c(c1)c(C#N)c(-c1ccc(S(=O)(=O)NC3(C(F)(F)F)CC3)cc1)n2C1CCC1 [Cpd 364, 4-[3-cyano-1-cyclobutyl-5-(methylsulfanyl)-1H-pyrrolo[2,3-b]pyridin-2-yl]-N-[1-(trifluoromethyl)cyclopropyl]benzenesulfonamide]	< 500	197 to 199
COc1cnc2c(c1)c(C#N)c(-c1ccc(S(=O)(=O)N[C@@H](C)C(F)(F)F)cn1)n2-c1cnccn1 [Cpd 365, 6-[3-cyano-5-methoxy-1-(pyrazin-2-yl)-1H-pyrrolo[2,3-b]pyridin-2-yl]-N-[(2S)-1,1,1-trifluoropropan-2-yl]pyridine-3-sulfonamide]	< 500	220 to 225
Cc1cnc2c(c1)c(C#N)c(-c1ccc(S(=O)(=O)N[C@@H](C)C(F)(F)F)cn1)n2-c1ccncc1 [Cpd 368, 6-[3-cyano-5-methyl-1-(pyridin-4-yl)-1H-pyrrolo[2,3-b]pyridin-2-yl]-N-[(2S)-1,1,1-trifluoropropan-2-yl]pyridine-3-sulfonamide]	< 500	243 to 245
CC(C)(C)NS(=O)(=O)c1ccc(-c2c(C#N)c3cc(Cl)cnc3n2C2CCC2)cc1 [Cpd 371, N-tert-butyl-4-(5-chloro-3-cyano-1-cyclobutyl-1H-pyrrolo[2,3-b]pyridin-2-yl)benzenesulfonamide]	< 500	244 to 246
NC(=O)c1c(-c2ccc(S(=O)(=O)NC3(C(F)(F)F)CC3)cc2)n(C2CCC2)c2ncc(C3CC3)cc12 [Cpd 373, 1-cyclobutyl-5-cyclopropyl-2-(4-{[1-(trifluoromethyl)cyclopropyl]sulfamoyl}phenyl)-1H-pyrrolo[2,3-b]pyridine-3-carboxamide]	< 500	224 to 229
CC(C)(C)NS(=O)(=O)c1ccc(-c2c(C(N)=O)c3cc(C4CC4)cnc3n2C2CCC2)nc1 [Cpd 376, 2-[5-(tert-butylsulfamoyl)pyridin-2-yl]-1-cyclobutyl-5-cyclopropyl-1H-pyrrolo[2,3-b]pyridine-3-carboxamide]	< 500	245 to 252
CCc1cnc2c(c1)c(C(N)=O)c(-c1ccc(S(=O)(=O)N[C@@H](C)C(F)(F)F)cn1)n2C1CCC1 [Cpd 377, 1-cyclobutyl-5-ethyl-2-(5-{[(2S)-1,1,1-trifluoropropan-2-yl]sulfamoyl}pyridin-2-yl)-1H-pyrrolo[2,3-b]pyridine-3-carboxamide]	< 500	236 to 240
CCc1cnc2c(c1)c(C(N)=O)c(-c1ccc(S(=O)(=O)NC(C)(C)C(F)(F)F)cc1)n2C1CCC1 [Cpd 378, 1-cyclobutyl-5-ethyl-2-{4-[(1,1,1-trifluoro-2-methylpropan-2-yl)sulfamoyl]phenyl}-1H-pyrrolo[2,3-b]pyridine-3-carboxamide]	< 500	185 to 193
